Consider five compounds from ChEMBL document CHEMBL5390297, “New Teixobactin Analogues with a Total Lactam Ring” (2023).

Converted amounts (≈) assume the structure as drawn.

Holding throughout (format): functional
Assay [1] deals with Nakaseomyces glabratus. The assay can be described thus: Antifungal activity against Candida glabrata ATCC 15126 assessed as reduction in bacterial growth incubated for 24 hrs by CLSI based broth microdilution method.
The subject of assay [2] is Escherichia coli. Kind of assay: Antibacterial activity against Escherichia coli ATCC 25922 assessed as reduction in bacterial growth incubated for 18 hrs by CLSI based broth microdilution method. (Dilution methods test growth across graded concentrations, often in twofold steps.)
For assay [3], the system named is Staphylococcus aureus. Kind of assay: Antibacterial activity against Staphylococcus aureus ATCC 25923 assessed as reduction in bacterial growth incubated for 18 hrs by CLSI based broth microdilution method.
The test system of assay [4] is Staphylococcus aureus. The assay can be described thus: Antibacterial activity against methicillin-resistant Staphylococcus aureus ATCC 33591 assessed as reduction in bacterial growth incubated for 24 hrs by CLSI based broth microdilution method.
In assay [5] the test system is Staphylococcus epidermidis. Kind of assay: Antibacterial activity against Staphylococcus epidermidis ATCC 14990 assessed as reduction in bacterial growth incubated for 18 hrs by CLSI based broth microdilution method.

In general, MIC refers to the lowest concentration found to suppress growth. Regarding `CC[C@H](C)[C@@H]1NC(=O)[C@H](CCCNC(=N)N)NC(=O)[C@H](C)NC(=O)[C@H](NC(=O)[C@H](CO)NC(=O)[C@@H](NC(=O)[C@H](NC(=O)[C@@H](CCC(N)=O)NC(=O)[C@H](CO)NC(=O)[C@@H](NC(=O)[C@@H](Cc2ccccc2)NC)[C@@H](C)CC)[C@@H](C)CC)[C@@H](C)CC)CNC1=O`, the MIC in assay [1] and in assay [2] was over 512 µg/mL throughout.

For the compound `CCCC[C@@H]1NC(=O)[C@H](CCCNC(=N)N)NC(=O)[C@H](C)NC(=O)[C@H](NC(=O)[C@H](CO)NC(=O)[C@@H](NC(=O)[C@H](NC(=O)[C@@H](CCC(N)=O)NC(=O)[C@H](CO)NC(=O)[C@@H](NC(=O)[C@@H](Cc2ccccc2)NC)[C@@H](C)CC)[C@@H](C)CC)[C@@H](C)CC)CNC1=O`, the minimum inhibitory concentration (MIC) in assay [1] and in assay [2] was over 512 µg/mL in each case.

With `CC[C@H](C)[C@H](NC(=O)[C@H](N)Cc1ccccc1)C(=O)N[C@@H](CO)C(=O)N[C@H](CCCNC(=N)N)C(=O)N[C@@H](C(=O)N[C@H](C(=O)N[C@@H](CO)C(=O)N[C@@H]1CNC(=O)[C@H]([C@@H](C)CC)NC(=O)[C@H](CCCNC(=N)N)NC(=O)[C@H](C)NC1=O)[C@@H](C)CC)[C@@H](C)CC`, the MIC in assay [1] and in assay [2] was over 512 µg/mL in each case.

Consider `CC[C@H](C)[C@H](NC(=O)[C@H](N)Cc1ccccc1)C(=O)N[C@@H](CO)C(=O)N[C@H](CCC(N)=O)C(=O)N[C@@H](C(=O)N[C@H](C(=O)N[C@@H](CO)C(=O)N[C@@H]1CNC(=O)[C@H]([C@@H](C)CC)NC(=O)[C@H](CCCNC(=N)N)NC(=O)[C@H](C)NC1=O)[C@@H](C)CC)[C@@H](C)CC`, for which the MIC in assay [1] and in assay [2] was over 512 µg/mL throughout.

`CCCC[C@@H]1NC(=O)[C@H](CCCNC(=N)N)NC(=O)[C@H](C)NC(=O)[C@H](NC(=O)[C@H](CO)NC(=O)[C@@H](NC(=O)[C@H](NC(=O)[C@@H](CCC(N)=O)NC(=O)[C@H](CO)NC(=O)[C@@H](NC(=O)[C@H](N)Cc2ccccc2)[C@@H](C)CC)[C@@H](C)CC)[C@@H](C)CC)CNC1=O`: the minimum inhibitory concentration (MIC) in assay [3] is 4 µg/mL (≈ 3.29 µM); in assay [4], 4 µg/mL (≈ 3.29 µM); in assay [5], 8 µg/mL (≈ 6.58 µM); in assay [1], over 512 µg/mL; in assay [2] it was over 512 µg/mL.
